{
  "source": "patent US8017772B2",
  "about": "“Substituted tetrahydropyrrolopyrazine compounds and the use thereof in the treatment and/or inhibition of pain” (Gruenenthal GmbH, priority 2006, dated 2011)",
  "key": {"hKCNQ2/3": {"molecular_target": "hKCNQ2/3 (Homo sapiens, UniProt O43525+O43526)", "assay": "Fluorescence assay using a voltage sensitive dye (BMG)", "type": "cell-based", "settings": "agonistic activity at 10 μM, CHO-K1 cells expressing KCNQ2/3; read-out: BMG AG %@10 μm", "description": "11. Biological Data 12. Fluorescence Assay Using a Voltage Sensitive Dye\n[…] CHO-K1 cells expressing KCNQ2/3 channels are cultivated adherently at 37° C., 5% CO2 and 95% humidity in cell culture bottles (e.g. 80 cm^2 TC flasks, Nunc) with MEM Alpha Medium (1×, liquid, Invitrogen, #22571), 10% fetal calf serum (FCS) (Invitrogen, #10270-106, heat-inactivated) and the necessary selection antibiotics.\nBefore being sown out for the measurements, the cells are washed with a 1×DPBS buffer without Ca^2+/Mg^2+ (e.g. Invitrogen, #14190-094) and detached from the bottom of the culture vessel by means of Accutase (PAA Laboratories, #L11-007) (incubation with Accutase for 15 min at 37° C.). The cell count then present is determined using a CASY™ cell counter (TCC model, Schärfe System) in order subsequently to apply 20,000 cells/well/100 μl of the described nutrient medium to 96-well measuring plates of the Corning™ CellBIND™ type (Flat Clear Bottom Black Polystyrene Microplates, #3340). Incubation is then carried out for one hour at room temperature, without gassing or adjusting the humidity, followed by incubation for 24 hours at 37° C., 5% CO2 and 95% humidity.\nThe voltage-sensitive fluorescent dye from the Membrane Potential Assay Kit (Red™ Bulk format part R8123 for FLIPR, Molecular Devices™) is prepared by dissolving the contents of a vessel Membrane Potential Assay Kit Red Component A in 200 ml of extracellular buffer (ES buffer, 120 mM NaCl, 1 mM KCl, 10 mM HEPES, 2 mM CaCl2, 2 mM MgCl2, 10 mM glucose; pH 7.4). After removal of the nutrient medium, the cells are washed with 200 μl of ES buffer, then covered with a layer of 100 μl of the dye solution prepared above and incubated for 45 min at room temperature with the exclusion of light.\nThe fluorescence measurements are carried out with a BMG Labtech FLUOstar™ or BMG Labtech POLARstar™ instrument (525 nm excitation, 560 nm emission, Bottom Read mode). After incubation of the dye, […] of the test substances in the desired concentrations, or 50 μl of ES buffer for control purposes, are introduced into separate cavities of the measuring plate and incubated for 30 min at room temperature while being shielded from light. The fluorescence intensity of the dye is then measured for 5 min and the fluorescence value F1 of each well is thus determined at a given, constant time. 15 μl of a […] KCl solution ([…]) are then added to each well. The change in fluorescence is subsequently measured until all the relevant measured values have been obtained (mainly 5-30 min). At a given time after KCl application, a fluorescence value F2 is determined, in this case at the time of the fluorescence peak.\nFor calculation, the fluorescence intensity F2 is compared with the fluorescence intensity F1, and the agonistic activity of the target compound on the potassium channel is determined therefrom. F2 and F1 are calculated as follows:\n[formula] In order to determine whether a substance has an agonistic effect,\n[formula] for example, can be compared with\n[formula] determined by adding to the reaction batch only the buffer solution instead of the substance to be tested, determining the value F1K of the fluorescence intensity, adding the potassium ions as described above and measuring a value F2K of the fluorescence intensity. Then F2K and F1K are calculated as follows: […]\nA substance has an agonistic activity on the potassium channel when\n[formula] is greater than\n[formula] Independently of the comparison of\n[formula] it is also possible to conclude that a target compound has agonistic activity if an increase in\n[formula] is to be observed as the dosage of the target compound increases. Calculations of EC50 and IC50 values are carried out with the aid of “Prism 4” software (GraphPad Software™). The following compounds were tested by way of example: […]"}, "[1]": {"test_system": "neuropathic pain (cold allodynia)", "assay": "Bennett model: neuropathic pain (chronic constriction injury, cold allodynia)", "type": "in vivo, mouse or rat", "settings": "i.v. administration, dose 10 mg/kg", "description": "Bennett Model: Neuropathic Pain in the Mouse and in the Rat The study of activity in neuropathic pain was carried out in the Bennett model (chronic constriction injury; Bennett and Xie, 1988, Pain 33: 87-107). Sprague-Dawley rats weighing 140-160 g are provided, under Narcoren narcosis, with four loose ligations of the right nervus ischiaticus. NMRI mice weighing 16-18 g are provided, under Ketavet-Rompun narcosis, with three loose ligations of the right nervus ischiaticus. The animals develop hypersensitivity of the paw innervated by the damaged nerve, and after a one-week recovery phase, the hypersensitivity is quantified over a period of about four weeks by means of a 4° C. cold metal plate (cold allodynia). The animals are observed on the plate for a period of 2 min and the number of reactions of pulling away the damaged paw is measured. […] The size of the group is n=10, the significance of an anti-allodynic action (*=p<0.05) is determined by means of a variance analysis with repeated measurement and a post hoc analysis according to Bonferroni."}, "[2]": {"test_system": "mononeuropathic pain (mechanical allodynia)", "assay": "Chung model: mononeuropathic pain after spinal nerve ligation (mechanical allodynia)", "type": "in vivo, Sprague-Dawley rats", "settings": "Rattus norvegicus, iv; i.v. administration", "description": "Chung Model: Mononeuropathic Pain after Spinal Nerve Ligation\nAnimals: Male Sprague-Dawley rats (140-160 g) from a commercial breeder (Janvier, Genest St. Isle, France) were kept under a 12:12 h light-dark rhythm. The animals received food and tap water ad libitum. A period of one week was observed between delivery of the animals and the operation. After the operation, the animals were tested several times over a period of 4-5 weeks, a washing-out time of at least one week being observed. Description of the model: Under pentobarbital narcosis (Narcoren®, 60 mg/kg i.p., Merial GmbH, Hallbergmoos, Germany), the left L5, L6 spinal nerves were exposed by removing a section of the paravertebral muscle and a section of the left spinous process of the L5 lumbar vertebral body. […] The pull-back threshold was measured on the ipsi- and/or contra-lateral rear paw by means of an electronic from Frey Filamentes (Somedic A B, Malmö, Sweden). […] The data were determined as % maximum possible effect (% MPE) from the preliminary tests on the individual animals (=0 MPE) and the test values of an independent sham control group (=100% MPE). […] The data were analyzed by variance analysis with repeated measurements and a post hoc analysis according to Bonferroni. […]"}},
  "data": [
    {"smiles": "O=C(CCC(=O)N1CCn2cccc2C1c1ccccc1)NCc1cccc(C(F)(F)F)c1", "note": "(stereo not drawn) [Example 2, 4-oxo-4-(1-phenyl-3,4-dihydro-1H-pyrrolo[1,2-a]pyrazin-2-yl)-N-(3-trifluoromethyl-benzyl)-butyramide]", "values": [
      {"measurement": "activation at 10 µM", "setting": "hKCNQ2/3", "value": 84, "unit": "%"},
      {"measurement": "% MPE in the Bennett model", "setting": "[1]", "value": 40, "unit": "% MPE"},
      {"measurement": "ED50", "setting": "[2]", "value": 2.8, "unit": "mg/kg"}
    ]}
  ]
}
